We go through 22 compounds from patent publication US20050014811A1, “Substituted benzimidazole compounds and their use for the treatment of cancer” (Aventis Pharma S.A., priority 2001, published 2005).

A word on the IC50: it is the concentration needed to halve the response being measured. Low values mean higher potency, high ones lower potency. In general, inhibition refers to the relative decrease from the control value, in per cent.

Assay [1] has as its target CDK4/CyclinD1 (Homo sapiens, UniProt P11802). In words: CDK4/CyclinD1 Flashplate assay, 96-well format, biotinylated-Rb peptide substrate. It counts as biochemical. The method in brief: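 Biotinylated Rb peptide bound to streptavidin Flashplate; CDK4/CyclinD1 (70 ng/well) preincubated 30 min on ice with compound at 10, 3, 1, 0.3 and 0.1 μM final. Reaction with 1 μM cold ATP plus 33P-ATP for 45 min at RT; incorporated 33P counted, duplicates.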

The target in assay [2] is CDK2/CyclinE (Homo sapiens, UniProt P24941). As to the kind of experiment: CDK2/CyclinE Flashplate assay, 96-well format, biotinylated-Rb peptide substrate. The assay is classed as biochemical. Here is the method: This is a CDK2/CyclinE kinase assay in a 96-well Streptavidin-coated Flashplate with a biotinylated-Rb peptide substrate.
Each point is tested in duplicate
Biotinylated-Rb: Biotin-[…]-OH
• 1. Prepare substrate: 1 mg/ml solution made fresh in PBS. • 2. Add 4 μg per well to the Flashplate. • 3. Incubate for 2 hours at RT. • 4. From 10 mM inhibitor stocks in DMSO, make 1 mM, 300 μM, 100 μM, 30 μM and 10 μM series of dilution in DMSO. • 5. Was the Flashplate 3 times with 300 μl PBS to remove unbound peptide substrate. • 6. Add the CDK2/CyclinE kinase: 200 ng per well, in a volume of 90 μl in kinase buffer (except for “no enzyme” control wells). • 7. Add 1 μl per well of inhibitor to test 10 μM, 3 μM, 1 μM, 0.3 μM and 0.1 μM in final concentration per 100 μl in each well. • 8. Shake gently the Flashplate 1 minute. • 9. Incubate 30 minutes on wet ice. • 10. Initiate the reaction with 10 μl kinase buffer containing 1 μM final cold ATP and 1 μCi final ^33P-ATP per well. • 11. Shake gently the Flashplate 1 minute. • 12. Incubate 45 minutes at RT (no shaking). • 13. Wash the Flashplate 3 times with 300 μl PBS
14. Count to detect the incorporation of ^33P-ATP by the kinase to the Rb phosphorylation site.

CDK4/CyclinD1, sequence (P11802 whole entry, species assumed): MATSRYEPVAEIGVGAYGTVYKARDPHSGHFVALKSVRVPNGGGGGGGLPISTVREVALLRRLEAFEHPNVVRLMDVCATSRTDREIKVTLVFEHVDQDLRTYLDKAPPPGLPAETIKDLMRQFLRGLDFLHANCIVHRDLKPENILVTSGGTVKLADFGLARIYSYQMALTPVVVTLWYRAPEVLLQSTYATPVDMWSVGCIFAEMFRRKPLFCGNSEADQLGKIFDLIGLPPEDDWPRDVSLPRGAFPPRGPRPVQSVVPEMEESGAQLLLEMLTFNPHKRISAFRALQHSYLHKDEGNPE
CDK4/CyclinD1, sequence (P24385 whole entry partner, species assumed): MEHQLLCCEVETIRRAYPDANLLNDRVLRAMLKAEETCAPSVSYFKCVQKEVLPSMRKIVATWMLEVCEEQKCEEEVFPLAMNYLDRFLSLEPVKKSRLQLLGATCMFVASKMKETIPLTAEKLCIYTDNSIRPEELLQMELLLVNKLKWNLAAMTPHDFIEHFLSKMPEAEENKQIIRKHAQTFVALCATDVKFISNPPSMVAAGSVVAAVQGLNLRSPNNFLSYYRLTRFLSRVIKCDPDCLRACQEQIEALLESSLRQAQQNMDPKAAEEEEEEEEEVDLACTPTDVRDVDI

Take `O=C(NCCCN1CCCC1)Nc1nc2cc(OS(=O)(=O)c3ccc(NC4CCCC4)cc3)ccc2[nH]1` [Example 58-ag, 4-Cyclopentylamino-benzenesulfonic acid 2-[3-(3-pyrrolidin-1-yl-propyl)-ureido]-1H-benzoimidazol-5-yl ester]: the IC50 in assay [1] worked out at 390 nM; in assay [2], 40 nM.

Turning to `O=C(NCCN1CCOCC1)Nc1nc2cc(OS(=O)(=O)c3ccc(NCC4CCCO4)cc3)ccc2[nH]1` (centres unmarked) [Example 59-i, 4-[(Tetrahydro-furan-2-ylmethyl)-amino]-benzenesulfonic acid 2-[3-(2-morpholin-4-yl-ethyl)-ureido]-1H-benzoimidazol-5-yl ester], the IC50 in assay [1] turned out to be 1200 nM; in assay [2], 40 nM.

With `COCCNC(=O)Nc1nc2cc(OS(=O)(=O)c3ccc(NC4CCCC4)cc3)ccc2[nH]1` [Example 48, 4-Cyclopentylamino-benzenesulfonic acid 2-[3-(2-methoxy-ethyl)-ureido]-1H-benzoimidazol-5-yl ester], the results for the IC50 in assay [1] and in assay [2] were 300 nM and 40 nM, respectively.

In the case of `O=C(Nc1nc2cc(OS(=O)(=O)c3ccc(NC4CCCC4)cc3)ccc2[nH]1)NC1CCC1` [Example 51, 4-Cyclopentylamino-benzenesulfonic acid 2-(3-cyclobutyl-ureido)-1H-benzoimidazol-5-yl ester], the IC50 in assay [1] amounted to 800 nM; in assay [2], 140 nM.

`COC(=O)Nc1nc2cc(OS(=O)(=O)c3ccc(NCCS(=O)(=O)O)cc3)ccc2[nH]1` [Example 15, Methyl-5-(4-[2-sulfonylethyl]aminophenylsulfonyloxy) benzimidazole-2-carbamate]: the IC50 in assay [1] turned out to be 300 nM; in assay [2], 1800 nM.

Regarding `O=C(NCCCN1CCCC1)Nc1nc2cc(OS(=O)(=O)c3ccc(NCC4CCCO4)cc3)ccc2[nH]1` (centres unmarked) [Example 59-h, 4-[(Tetrahydro-furan-2-ylmethyl)-amino]-benzenesulfonic acid 2-[3-(3-pyrrolidin-1-yl-propyl)-ureido]-1H-benzoimidazol-5-yl ester], the concentration for half-maximal inhibition (IC50) stood at 1100 nM in assay [1] and 200 nM in assay [2].

As for `O=C(NCCN1CCOCC1)Nc1nc2cc(OS(=O)(=O)c3ccc(NC4CCCC4)cc3)ccc2[nH]1` [Example 58-v, 4-Cyclopentylamino-benzenesulfonic acid 2-[3-(2-morpholin-4-yl-ethyl)-ureido]-1H-benzoimidazol-5-yl ester], the IC50 in assay [1] was 110 nM; in assay [2] it was 100 nM.

`CN1CCN(c2ccc(Nc3nc4cc(OS(=O)(=O)c5ccc(NC6CCCC6)cc5)ccc4[nH]3)cc2)CC1` [Example 70-h]: the IC50 amounted to 140 nM in assay [1] and 250 nM in assay [2].

Turning to `CCN(CC)CCNC(=O)Nc1nc2cc(OS(=O)(=O)c3ccc(NC4CCCC4)cc3)ccc2[nH]1` [Example 58-am, 4-Cyclopentylamino-benzenesulfonic acid 2-[3-(2-diethylamino-ethyl)-ureido]-1H-benzoimidazol-5-yl ester], the concentration for half-maximal inhibition (IC50) in assay [1] came to 240 nM; in assay [2], 80 nM.

As for `COC(=O)CCCNC(=O)Nc1nc2cc(OS(=O)(=O)c3ccc(NC4CCCC4)cc3)ccc2[nH]1` [Example 58-m, 4-{3-[5-(4-Cyclopentylamino-benzenesulfonyloxy)-1H-benzoimidazol-2-yl]-ureido}-butyric acid methyl ester], the 50% inhibitory concentration (IC50) turned out to be 240 nM in assay [1] and 30 nM in assay [2].

As for `COC(=O)Nc1nc2cc(OS(=O)(=O)c3ccc(NCC(=O)O)cc3)ccc2[nH]1` [Example 7, Methyl-5-(4-[N-Glycinyl]-phenylsulfonyloxy) benzimidazole-2-carbamate], the values for the IC50 in assay [1] and in assay [2] were 470 nM and 2000 nM, respectively.

Turning to `O=C(NCc1cccc(F)c1)Nc1nc2cc(OS(=O)(=O)c3ccc(NC4CCCC4)cc3)ccc2[nH]1` [Example 41, 4-Cyclopentylamino-benzenesulfonic acid 2-[3-(3-fluoro-benzyl)-ureido]-1H-benzoimidazol-5-yl ester], the IC50 in assay [1] was determined as 2800 nM; in assay [2], 60 nM.

In the case of `O=C(NCCS(=O)(=O)O)Nc1nc2cc(OS(=O)(=O)c3ccc(-n4ccnc4)cc3)ccc2[nH]1` [Example 47, 4-Imidazol-1-yl-benzenesulfonic acid 2-[3-(2-sulfo-ethyl)-ureido]-1H-benzoimidazol-5-yl ester], the half-inhibitory concentration (IC50) in assay [1] amounted to 800 nM; in assay [2] it was 160 nM.

`O=C(NCc1ccccc1Cl)Nc1nc2cc(OS(=O)(=O)c3ccc(-n4ccnc4)cc3)ccc2[nH]1` [Example 57-g, 4-Imidazol-1-yl-benzenesulfonic acid 2-[3-(2-chloro-benzyl)-ureido]-1H-benzoimidazol-5-yl ester]: testing at 10 µM in assay [1] gave an inhibition of 52%. Also, the half-inhibitory concentration (IC50) in assay [2] stood at 600 nM.

As for `O=C(Nc1ccc(Cl)cc1)Nc1nc2cc(OS(=O)(=O)c3ccc(NC4CCCC4)cc3)ccc2[nH]1` [Example 40, 4-Cyclopentylamino-benzenesulfonic acid 2-[3-(4-chloro-phenyl)-ureido]-1H-benzoimidazol-5-yl ester], the IC50 came to 3710 nM in assay [1] and 1090 nM in assay [2].

Consider `CCNC(=O)Nc1nc2cc(OS(=O)(=O)c3ccc(NCC4CCCO4)cc3)ccc2[nH]1` (centres unmarked) [Example 59-j, 4-[(Tetrahydro-furan-2-ylmethyl)-amino]-benzenesulfonic acid 2-(3-ethyl-ureido)-1H-benzoimidazol-5-yl ester], for which the IC50 in assay [1] came out at 900 nM; in assay [2] it was 7 nM.

In the case of `COC(=O)Nc1nc2cc(OS(=O)(=O)c3c(F)cccc3F)ccc2[nH]1` [Example 62-h, 2,6-Difluoro-benzenesulfonic acid 2-methoxycarbonylamino-1H-benzoimidazol-5-yl ester], the IC50 in assay [1] worked out at 800 nM; in assay [2], 70 nM.

`O=C(NCCO)Nc1nc2cc(OS(=O)(=O)c3ccc(-n4ccnc4)cc3)ccc2[nH]1` [Example 57-e, 4-Imidazol-1-yl-benzenesulfonic acid 2-[3-(2-hydroxy-ethyl)-ureido]-1H-benzoimidazol-5-yl ester] came in with an inhibition at 10 µM in assay [1] of 90%. This compound also returned an IC50 in assay [2] of 300 nM.

Regarding `CCC(CO)Nc1ccc(S(=O)(=O)Oc2ccc3[nH]c(NC(=O)OC)nc3c2)cc1` (centres unmarked) [Example 11, Methyl-5-(4-[1-ethyl, 2-hydroxyethyl]aminophenylsulfonyloxy)benzimidazole-2-carbamate], the values for the half-inhibitory concentration (IC50) in assay [1] and in assay [2] were 930 nM and 500 nM, respectively.

In turn, `O=C(Nc1cccc(F)c1)Nc1nc2cc(OS(=O)(=O)c3ccc(NC4CCCC4)cc3)ccc2[nH]1` [Example 58-d, 4-Cyclopentylamino-benzenesulfonic acid 2-[3-(3-fluoro-phenyl)-ureido]-1H-benzoimidazol-5-yl ester] yielded an inhibition at 10 µM in assay [1] of 84%. The compound also came in with an IC50 in assay [2] of 1600 nM.

`CNC(=O)Nc1nc2cc(OS(=O)(=O)c3ccc(NCC4CCCO4)cc3)ccc2[nH]1` (centres unmarked) [Example 54, 4-[(Tetrahydro-furan-2-ylmethyl)-amino]-benzenesulfonic acid 2-(3-methyl-ureido)-1H-benzoimidazol-5-yl ester]: the IC50 in assay [1] amounted to 500 nM; in assay [2], 5 nM.

For `CCN1CCCC1CNC(=O)Nc1nc2cc(OS(=O)(=O)c3ccc(NC4CCCC4)cc3)ccc2[nH]1` (centres unmarked) [Example 58-ah, 4-Cyclopentylamino-benzenesulfonic acid 2-[3-(1-ethyl-pyrrolidin-2-ylmethyl)-ureido]-1H-benzoimidazol-5-yl ester], the results for the IC50 in assay [1] and in assay [2] were 330 nM and 30 nM, respectively.
